From paper PMC8037814, “Polymorphic Characterization, Pharmacokinetics, and Anti-Inflammatory Activity of Ginsenoside Compound K Polymorphs” (Molecules, 2021)
Values joined by “and” are separate entries in the source; they are usually repeats but may differ in a detail not shown here. Equal values may be shown once.

How the values were obtained:
[1] = Pharmacokinetics after oral administration of CK polymorphs in rats (20 mg/kg); assay type: in vivo, Sprague-Dawley rats; conditions: p.o. 20 mg/kg, individual rats 1-3
[2] = system: carrageenan-induced acute paw inflammation; experiment: Paw swelling test induced by carrageenan in rats; assay type: in vivo, Sprague-Dawley rats; set-up: paw volume: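 right hind paw volume measured with a plethysmometer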; conditions: for paw volume / paw edema: mean±SD of 6 rats; for edema inhibition: versus model group
In short: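 Rats (six per group, half of each sex) received compound at 10 or 20 mg/kg, suspended in 0.5% CMC-Na, before carrageenan challenge. Paw edema (%) = (Vn − V0)/V0 × 100 over time; inhibitory rate relative to model group, compared by t-test.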

[3] = DSC thermal analysis of CK polymorphs; assay type: physicochemical; conditions: 20 K/min from 20 to 400 °C, dry nitrogen flow
Protocol: DSC measurements were performed on a DSC204 Phoenix calorimeter (NETZSCH, Selb, Germany) with a heating rate of 20 K/min from 20 to 400 °C. The dry nitrogen flow was about 50 mL/min. Data were analyzed using NETZSCH analysis software.

[4] = Pharmacokinetics after oral administration of CK polymorphs in rats (20 mg/kg); assay type: in vivo, Sprague-Dawley rats; conditions: for Fabs (absolute bioavailability): p.o. 20 mg/kg vs i.v. 10 mg/kg, dose-adjusted AUC ratio
[5] = 10 mg/kg p.o. qd 3 days, 3h after carrageenan, listed as From II
[6] = 10 mg/kg p.o. qd 3 days, 4h after carrageenan, listed as From II
[7] = 10 mg/kg p.o. qd 3 days, 5h after carrageenan, listed as From II
[8] = 10 mg/kg p.o. qd 3 days, 6h after carrageenan, listed as From II
[9] = 20 mg/kg p.o. qd 3 days, 3h after carrageenan, listed as From II
[10] = 20 mg/kg p.o. qd 3 days, 4h after carrageenan
[11] = 20 mg/kg p.o. qd 3 days, 4h after carrageenan, listed as From II
[12] = 20 mg/kg p.o. qd 3 days, 5h after carrageenan, listed as From II
[13] = 20 mg/kg p.o. qd 3 days, 6h after carrageenan, listed as From II
[14] = female rats, p.o. 20 mg/kg, mean ± SD (n = 3), 20 mg/kg
[15] = male rats, p.o. 20 mg/kg, mean ± SD (n = 3), 20 mg/kg

CC(C)=CCCC(C)(OC1OC(CO)C(O)C(O)C1O)C1CCC2(C)C1C(O)CC1C3(C)CCC(O)C(C)(C)C3CCC12C [Form II, 20-O-β-D-glucopyranosyl-20(S)-protopanaxadiol]
AUC(0-t) ([1]; female rats): 4557.73 ng·h/mL and 1338.42 ng·h/mL and 1445.59 ng·h/mL | AUC(0-∞) ([1]; female rats): 4823.11 ng·h/mL and 1371.40 ng·h/mL and 1459.17 ng·h/mL | CLz/F ([1]; female rats): 69.2 mL/min/kg and 243 mL/min/kg and 228.5 mL/min/kg | Cmax ([1]; female rats): 777.00 ng/mL and 209.65 ng/mL and 392.12 ng/mL | Vz/F ([1]; female rats): 23.70 L/kg and 62.95 L/kg and 49.26 L/kg | AUC(0-t) ([1]; male rats): 1095.34 ng·h/mL and 774.36 ng·h/mL and 1703.47 ng·h/mL | AUC(0-∞) ([1]; male rats): 1198.51 ng·h/mL and 780.14 ng·h/mL and 1726.92 ng·h/mL | CLz/F ([1]; male rats): 278.2 mL/min/kg and 427.3 mL/min/kg and 193 mL/min/kg | Cmax ([1]; male rats): 187.99 ng/mL and 197.22 ng/mL and 311.79 ng/mL | t1/2z ([1]; male rats): 2.17 h and 2.39 h and 4.24 h | paw volume ([2]; 10 mg/kg p.o. qd 3 days, 0h (before carrageenan), listed as From II): 1.57±0.12 | paw edema [2, 5]: 55.25±18.20% | paw volume [2, 5]: 2.41±0.16 | edema inhibition [2, 5]: 14.03% | paw edema [2, 6]: 47.34±11.94% | paw volume [2, 6]: 2.30±0.14 | edema inhibition [2, 6]: 24.09% | paw edema [2, 7]: 33.73±13.72% | paw volume [2, 7]: 2.08±0.12 | edema inhibition [2, 7]: 34.84% | paw edema [2, 8]: 27.25±10.94% | paw volume [2, 8]: 1.98±0.08 | edema inhibition [2, 8]: 30.70% | paw volume ([2]; 20 mg/kg p.o. qd 3 days, 0h (before carrageenan), listed as From II): 1.65±0.14 | paw edema [2, 9]: 45.81±8.11% | paw volume [2, 9]: 2.40±0.15 | edema inhibition [2, 9]: 28.72% | paw edema [2, 10]: 39.7 ± 6.4% | paw edema [2, 11]: 39.71±6.48% | paw volume [2, 11]: 2.30±0.14 | edema inhibition [2, 10]: 36.3% | edema inhibition [2, 11]: 36.33% | paw edema [2, 12]: 29.62±8.06% | paw volume [2, 12]: 2.13±0.15 | edema inhibition ([2]; 20 mg/kg p.o. qd 3 days, 5h after carrageenan): 42.7% | edema inhibition [2, 12]: 42.77% | paw edema [2, 13]: 23.59±8.59% | paw volume [2, 13]: 2.03±0.14 | edema inhibition ([2]; 20 mg/kg p.o. qd 3 days, 6h after carrageenan): 40.0% | edema inhibition [2, 13]: 40.00% | DSC onset of the decomposition endotherm (thermodynamical stability) [3]: 263.1 °C | maximum differences of the average Cmax and AUC(0–∞) values, form II compared to form IV ([4]; female groups, p.o. 20 mg/kg): 2.1 fold | Fabs (absolute bioavailability) ([4]; female rats): 7.87% | t1/2z ([4]; female rats, p.o. 20 mg/kg, individual rats 1-3, 20 mg/kg): 3.96 h and 2.99 h and 2.49 h | AUC(0–t) [4, 14]: 2447.2 ± 1828.5 ng·h/mL | AUC(0–∞) [4, 14]: 2551.23 ± 1967.99 ng·h/mL and 2551.2 ± 1968.0 ng·h/mL | CLz/F [4, 14]: 180 ± 96.5 mL/min/kg | Cmax [4, 14]: 459.59 ± 289.63 ng/mL and 459.6 ± 289.6 ng/mL | Vz/F [4, 14]: 45.3 ± 20.0 L/kg | t1/2z [4, 14]: 3.15 ± 0.75 h and 3.2 ± 0.75 h | AUC(0-t) ([4]; female, Sprague-Dawley, rat, plasma, po, 20 mg/kg, female rats, p.o. 20 mg/kg, mean ± SD (n = 3)): 2450 ± 1830 ng·h/mL | CL/F ([4]; female, Sprague-Dawley, rat, plasma, po, 20 mg/kg, female rats, p.o. 20 mg/kg, mean ± SD (n = 3), read-out: CLz/F (converted)): 180 mL/min/kg | maximum differences of the average Cmax and AUC(0–∞) values, form II compared to form IV ([4]; male groups, p.o. 20 mg/kg): 1.6 fold | Fabs (absolute bioavailability) ([4]; male rats): 4.07% | Vz/F ([4]; male rats, p.o. 20 mg/kg, individual rats 1-3, 20 mg/kg): 102.18 L/kg and 80.31 L/kg and 39.93 L/kg | AUC(0–t) [4, 15]: 1191.06 ± 471.90 ng·h/mL and 1191.1 ± 471.90 ng·h/mL | AUC(0–∞) [4, 15]: 1235.2 ± 474.45 ng·h/mL | CLz/F [4, 15]: 299.5 ± 118 mL/min/kg and 300 ± 118 mL/min/kg | Cmax [4, 15]: 232.33 ± 68.97 ng/mL and 232.3 ± 68.97 ng/mL | Vz/F [4, 15]: 74.14 ± 31.58 L/kg and 74.1 ± 31.6 L/kg | t1/2z [4, 15]: 2.93 ± 1.14 h and 2.9 ± 1.1 h | AUC(0-inf) ([4]; male, Sprague-Dawley, rat, plasma, po, 20 mg/kg, male rats, p.o. 20 mg/kg, mean ± SD (n = 3)): 1240 ± 474 ng·h/mL
